# Experimental data from article PMC10254233, “Synthesis and In Vitro Biological Evaluation of p-Carborane-Based Di-tert-butylphenol Analogs” (Molecules, 2023).
# How the values were obtained:
# [1] = biological target: T1, 5-LO (Homo sapiens, UniProt P09917); assay: 5-LO product formation in intact PMNL; details: PMNL, read-out: inhibition of 5-LO product formation
# T1 sequence (P09917 1-674): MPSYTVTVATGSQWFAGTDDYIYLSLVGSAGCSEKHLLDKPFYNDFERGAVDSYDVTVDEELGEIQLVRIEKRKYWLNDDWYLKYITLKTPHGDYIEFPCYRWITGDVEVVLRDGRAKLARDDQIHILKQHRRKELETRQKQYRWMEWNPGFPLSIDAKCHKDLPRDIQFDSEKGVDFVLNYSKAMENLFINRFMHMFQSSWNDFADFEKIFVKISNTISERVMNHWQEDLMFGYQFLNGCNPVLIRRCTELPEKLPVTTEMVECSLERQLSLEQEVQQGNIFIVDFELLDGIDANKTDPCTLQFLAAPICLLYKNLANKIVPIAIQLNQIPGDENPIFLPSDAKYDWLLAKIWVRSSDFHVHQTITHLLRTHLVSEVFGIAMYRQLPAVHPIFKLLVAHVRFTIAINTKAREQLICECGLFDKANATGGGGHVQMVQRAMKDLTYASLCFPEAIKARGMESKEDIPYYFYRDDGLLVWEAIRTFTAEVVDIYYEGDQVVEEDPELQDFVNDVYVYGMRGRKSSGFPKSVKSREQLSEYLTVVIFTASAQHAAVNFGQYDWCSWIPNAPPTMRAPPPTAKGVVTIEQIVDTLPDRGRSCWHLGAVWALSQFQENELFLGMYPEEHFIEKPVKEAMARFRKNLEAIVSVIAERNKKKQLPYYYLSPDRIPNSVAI
# Method: After 10 min at 37 °C, the reaction was stopped by addition of ice-cold methanol (1 mL). HCl (30 μL, 1 M), prostaglandin B1 (200 ng) and PBS (500 μL) were added and the formed metabolites were extracted and analyzed by HPLC as described previously [96].
# [2] = served as references for the HPLC method; cited from earlier work
# [3] = biological target: T2, ovine COX-1 (Ovis aries, UniProt P05979); assay: COX Fluorescent Inhibitor Screening Assay, COX-1; type: biochemical; details: in duplicate
# T2 construct: purchased Cayman Chemical Company
# T2 sequence (P05979 25-600): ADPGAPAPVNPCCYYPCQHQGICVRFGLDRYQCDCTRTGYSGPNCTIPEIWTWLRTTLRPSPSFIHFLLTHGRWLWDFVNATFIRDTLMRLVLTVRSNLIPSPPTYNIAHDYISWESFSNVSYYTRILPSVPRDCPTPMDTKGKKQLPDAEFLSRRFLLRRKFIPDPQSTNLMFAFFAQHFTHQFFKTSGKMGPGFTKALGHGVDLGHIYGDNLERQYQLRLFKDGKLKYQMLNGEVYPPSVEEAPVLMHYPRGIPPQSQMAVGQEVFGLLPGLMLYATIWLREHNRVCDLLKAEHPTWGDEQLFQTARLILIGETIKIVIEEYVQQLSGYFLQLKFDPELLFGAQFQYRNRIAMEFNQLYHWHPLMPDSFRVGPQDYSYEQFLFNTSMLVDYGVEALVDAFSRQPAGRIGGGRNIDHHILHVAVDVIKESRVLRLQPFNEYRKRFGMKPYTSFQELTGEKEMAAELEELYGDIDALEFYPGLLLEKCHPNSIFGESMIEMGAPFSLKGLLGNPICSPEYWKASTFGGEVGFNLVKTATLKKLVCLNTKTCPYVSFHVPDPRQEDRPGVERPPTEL
# Method: (§1) COX inhibition activity against ovine COX-1 and human COX-2 was determined using the fluorescence-based COX assay COX Fluorescent Inhibitor Screening Assay Kit (Cayman Chemical Company, Ann Arbor, MI, USA) according to the manufacturer’s instructions as previously reported by us. All compounds were screened at a concentration of 100 µM in duplicate.
# [4] = biological target: T3, human recombinant COX-2 (Homo sapiens, UniProt P35354); assay: COX Fluorescent Inhibitor Screening Assay, COX-2; type: biochemical; details: in duplicate
# T3 construct: purchased Cayman Chemical Company
# T3 sequence (P35354 18-604): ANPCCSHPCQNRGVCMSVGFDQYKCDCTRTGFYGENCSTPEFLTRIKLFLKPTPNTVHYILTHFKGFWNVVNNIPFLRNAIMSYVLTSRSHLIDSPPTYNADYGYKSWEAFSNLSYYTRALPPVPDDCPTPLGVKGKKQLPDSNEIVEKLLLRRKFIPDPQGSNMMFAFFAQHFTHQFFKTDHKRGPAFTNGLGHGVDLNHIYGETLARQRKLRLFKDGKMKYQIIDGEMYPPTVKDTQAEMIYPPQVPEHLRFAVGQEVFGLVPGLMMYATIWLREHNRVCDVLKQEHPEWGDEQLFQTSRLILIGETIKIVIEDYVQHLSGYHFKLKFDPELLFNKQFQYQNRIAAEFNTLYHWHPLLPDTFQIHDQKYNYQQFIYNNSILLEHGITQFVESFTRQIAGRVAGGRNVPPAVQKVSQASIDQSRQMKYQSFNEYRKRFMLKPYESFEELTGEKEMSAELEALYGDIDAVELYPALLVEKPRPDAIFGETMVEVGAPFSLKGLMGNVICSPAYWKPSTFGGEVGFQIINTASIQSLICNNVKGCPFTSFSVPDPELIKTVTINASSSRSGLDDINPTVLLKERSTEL
# Method: as §1
# [5] = tested on: A375 melanoma; assay: Cell viability, MTT assay, A375; type: cell-based, human; details: Homo sapiens, A-375; 72 h, mean ± SD
# Method: (§2) Five human cell lines (A375 melanoma, A549 lung adenocarcinoma, HCT116 and HT29 colorectal carcinoma, MDA-MB-231 triple-negative breast adenocarcinoma) were used to study the antitumor effects of the di-tert-butylphenols and their respective carborane analogs. All selected cell lines were derived from inflammation-associated tumors.
# (§3) After the incubation period, the supernatant was discarded from the wells, and the cells were washed two times with 200 µL of PBS. Next, MTT solution at a final concentration of 0.5 mg/mL was added and incubated at 37 °C until purple formazan crystals were formed (30 min to one hour). After incubation, the dye was discarded. In order to dissolve the formed formazan crystals DMSO was added, and the absorbance was measured at λmax = 540 nm, with the reference/background wavelength of 670 nm. All results are expressed as a percentage of the control value which was arbitrary set to 100%. After 72 h treatment, cells were washed with 200 µL of PBS and fixed with 4% paraformaldehyde (PFA) for 15 min at room temperature (RT). Next, cells were stained with 1% CV solution. After 20 min, cells were washed in tap water and dried on air. Dye was dissolved in 33% acetic acid and the absorbance was measured at λmax = 540 nm, with the reference/background wavelength of 670 nm. Results were expressed as a percentage of the control value which was arbitrary set to 100%.
# (§4) 1. General methods, materials, and procedures
# (§5) 1.1.1. Reagents and cells
# (§6) Reagents and cells were obtained from following manufacturers: Capricorn Scientific GmbH (Hessen, Germany) – Culture medium RPMI-1640, Dulbecco's Modified Eagle Medium (DMEM), and fetal bovine serum (FBS). Serva (Heidelberg, Germany) – Paraformaldehyde (PFA). Sigma (St. Louis, MO, USA) – Ethylenediaminetetraacetic acid (EDTA), Dimethyl sulfoxide (DMSO), chloroquine, CV, Triton X-100, RNase, PI, PBS, 3-MA, CFSE, and fluorescent mounting medium. AppliChem (MO, USA) –MTT. Thermo Fisher Scientific (Waltham, MA, USA) – DHR. R&D Systems (Minneapolis, MN, USA) – ApoStat. BD (Pharmingen, San Diego, SAD) – Annexin V-FITC (AnnV). Biological Industries (Cromwell, CT, USA) – Penicillin Streptomycin solution. American Type Culture Collection (ATCC, Manassas, Virginia, USA) – Human lung carcinoma (A549), human breast adenocarcinoma (MDA-MB-231), human colorectal ade-nocarcinoma (HT-29), human colorectal carcinoma (HCT116) and human melanoma (A375).
# (§7) Cell lines (A375, HCT116, HT-29 and MDA-MB-231) were cultivated in HEPES-buffered RPMI-1640 medium while A549 cell line was cultivated in Dulbecco's Modified Eagle Medium (DMEM) which were previously supplemented with 10% heat-inactivated FBS, penicillin (100 units/mL), and streptomycin (100 μg/mL). All cells were kept at 37 °C in a humidified atmosphere with 5% CO2. For viability determi-nation cells were seeded at following densities in 96-well plates: 4 x 10^3 cells/well (A375, HT-29 and MDA-MB-231), 5 x 10^3 cells/well (HCT116), and 3 x 10^3 cells/well (A549). […]
# (§8) Afterwards, cells were washed with phosphate-buffered saline (PBS) and stained with AnnV (15 μg/mL) and PI (15 μg/mL). […]
# (§9) PBS and analyzed using flow cytometry. HCT116 cells were stained with 1 µg/mL of AO solution for 15 min at 37 °C to detect the presence of autophagic cell death. Afterwards cells were washed with PBS, resuspended and analyzed by flow cytometry (CyFlow® Space Partec using the PartecFloMax® software
# [6] = tested on: A549 lung adenocarcinoma; assay: Cell viability, MTT assay, A549; type: cell-based, human; details: Homo sapiens, A549; 72 h, mean ± SD
# Method: as §2, §3, §4, §5, §6, §7
# (§10) Afterwards, cells were washed with phosphate-buffered saline (PBS) and stained with AnnV (15 μg/mL) and PI (15 μg/mL). After 15 min incubation at room temperature (RT) protected from light the cells were resuspended in AnnV-binding buffer and analysed using flow cytom-etry. HCT116 cells were incubated with pan-caspase inhibitor Apostat for 30 min at 37 °C to determine whether detected apoptosis was mediated by caspase activation. Afterwards, cells were washed with PBS and analyzed using flow cytometry. HCT116 cells were stained with 1 µg/mL of AO solution for 15 min at 37 °C to detect the presence of autophagic cell death. Afterwards cells were washed with PBS, resuspended and analyzed by flow cytometry (CyFlow® Space Partec using the PartecFloMax® software
# [7] = tested on: HCT116 colorectal carcinoma; assay: Cell viability, MTT assay, HCT116; type: cell-based, human; details: Homo sapiens, HCT-116; 72 h, mean ± SD
# Method: as §2, §3, §4, §5, §6, §7, §8, §9
# [8] = tested on: HT-29 colorectal carcinoma; assay: Cell viability, MTT assay, HT-29; type: cell-based, human; details: Homo sapiens, HT-29; 72 h, mean ± SD
# Method: as §2, §3, §4, §5, §6, §7, §10
# [9] = tested on: MDA-MB-231 triple-negative breast adenocarcinoma; assay: Cell viability, MTT assay, MDA-MB-231; type: cell-based, human; details: Homo sapiens, MDA-MB-231; 72 h, mean ± SD
# Method: as §2, §3, §4, §5, §6, §7, §10
# [10] = tested on: A375 melanoma; assay: Cell viability, crystal violet (CV) assay, A375; type: cell-based; details: Homo sapiens, A-375; 72 h, mean ± SD
# Method: as §2, §3, §4, §5
# as §6, with “American Type Culture Collection (ATCC, Manassas, Virginia, USA) – Human lung carcinoma (A549), human breast adenocarcinoma (MDA-MB-231), human colorectal ade-nocarcinoma (HT-29), human colorectal carcinoma (HCT116) and human melanoma (A375).” left out
# as §10, with “HCT116 cells were stained with 1 µg/mL of AO solution for 15 min at 37 °C to detect the presence of autophagic cell death.” left out
# [11] = tested on: A549 lung adenocarcinoma; assay: Cell viability, crystal violet (CV) assay, A549; type: cell-based; details: Homo sapiens, 72 h, mean ± SD
# Method: as §2, §3, §4, §5
# as §6, with “American Type Culture Collection (ATCC, Manassas, Virginia, USA) – Human lung carcinoma (A549), human breast adenocarcinoma (MDA-MB-231), human colorectal ade-nocarcinoma (HT-29), human colorectal carcinoma (HCT116) and human melanoma (A375).” left out
# as §10, with “HCT116 cells were stained with 1 µg/mL of AO solution for 15 min at 37 °C to detect the presence of autophagic cell death.” left out
# [12] = tested on: HCT116 colorectal carcinoma; assay: Cell viability, crystal violet (CV) assay, HCT116; type: cell-based; details: Homo sapiens, HCT-116; 72 h, mean ± SD
# Method: as §2, §3, §4, §5
# as §6, with “American Type Culture Collection (ATCC, Manassas, Virginia, USA) – Human lung carcinoma (A549), human breast adenocarcinoma (MDA-MB-231), human colorectal ade-nocarcinoma (HT-29), human colorectal carcinoma (HCT116) and human melanoma (A375).” left out
# as §10, with “HCT116 cells were stained with 1 µg/mL of AO solution for 15 min at 37 °C to detect the presence of autophagic cell death.” left out
# [13] = tested on: HT-29 colorectal carcinoma; assay: Cell viability, crystal violet (CV) assay, HT-29; type: cell-based; details: Homo sapiens, 72 h, mean ± SD
# Method: as §2, §3, §4, §5
# as §6, with “American Type Culture Collection (ATCC, Manassas, Virginia, USA) – Human lung carcinoma (A549), human breast adenocarcinoma (MDA-MB-231), human colorectal ade-nocarcinoma (HT-29), human colorectal carcinoma (HCT116) and human melanoma (A375).” left out
# as §10, with “HCT116 cells were stained with 1 µg/mL of AO solution for 15 min at 37 °C to detect the presence of autophagic cell death.” left out
# [14] = tested on: MDA-MB-231 triple-negative breast adenocarcinoma; assay: Cell viability, crystal violet (CV) assay, MDA-MB-231; type: cell-based; details: Homo sapiens, 72 h, mean ± SD
# Method: as §2, §3, §4, §5
# as §6, with “American Type Culture Collection (ATCC, Manassas, Virginia, USA) – Human lung carcinoma (A549), human breast adenocarcinoma (MDA-MB-231), human colorectal ade-nocarcinoma (HT-29), human colorectal carcinoma (HCT116) and human melanoma (A375).” left out
# as §10, with “HCT116 cells were stained with 1 µg/mL of AO solution for 15 min at 37 °C to detect the presence of autophagic cell death.” left out
# [15] = physchem; details: pH 7.4
smiles,measurement,setting,value
"CC(=O)N(O)C/C=C/c1cccc(Oc2ccccc2)c1 [BWA4C, N-[(E)-3-(3-Phenoxyphenyl)prop-2-enyl]acetohydroxamic acid]",inhibition at 0.1 µM,[1],92.5%
CC1=C(C(=O)Nc2ccccc2)S(=O)(=O)CCO1 [Oxycarboxin],logD7.4 of HPLC references,[2],1.13
"CCN1CC/C(=C\c2cc(C(C)(C)C)c(O)c(C(C)(C)C)c2)S1(=O)=O [Compound S-2474, 2,6-Bis(1,1-dimethylethyl)-4-[(E)-(2-ethyl-1,1-dioxido-5-isothiazolidinylidene)methyl]phenol]",inhibition at 100 µM,[3],38%
same,inhibition at 100 µM,[4],86%
same,IC50,[5],13.2 ± 2.7 µM
same,IC50,[6],16.2 ± 1.2 µM
same,IC50,[7],17.5 ± 1 µM
same,IC50,[8],16.1 ± 1.1 µM
same,IC50,[9],34.8 ± 1.7 µM
same,IC50,[10],19.2 ± 0.7 µM
same,IC50,[11],17.9 ± 1.2 µM
same,IC50,[12],23.7 ± 1.9 µM
same,IC50,[13],23.8 ± 1.7 µM
same,IC50,[14],43.5 ± 1.8 µM
same,chromatographic logD,[15],3.75
